This is an account of results in publication PMC3652819, “A Cocoa Peptide Protects Caenorhabditis elegans from Oxidative Stress and β-Amyloid Peptide Toxicity” (PLoS ONE, 2013).

pIC50: −log10 of the molar value. Residues, ends and D or L forms follow the SMILES beside them. No end group written: not given here. *: point of attachment. Cbz = O=C(OCc1ccccc1)* Bounds are passed on as bounds.

Assay [1] deals with C. elegans strain CL4176 (Aβ1–42). In words: body paralysis assay in transgenic C. elegans CL4176 expressing human Aβ1-42. It is filed as in vivo, Caenorhabditis elegans. The following applies: for effect on body paralysis (in words): compared with NGM controls; for Mid Paralysis (h), time when 50% of worms were paralyzed / % of worms non paralyzed at onset of paralysis / Onset Paralysis, time: peptides 1 µg/mL, ZPP 1 µM, “Barquillo” 10 µL/mL, fractions 10 µL/mL; for Mid Paralysis (h), time when 50% of worms were paralyzed: NGM 47 h; for % of worms non paralyzed at onset of paralysis: at the onset time, NGM 85.8%; for Onset Paralysis, time: time after Aβ42 induction, NGM 41 h. As to the method:
Mutant strain GR1321 (tph-1(mg280)) was used in body fat reduction experiments. All the strains were obtained from the Caenorhabditis Genetics Center (University of Minnesota). Caenorhabditis elegans N2 and tph-1 were routinely propagated on Nematode Growth Medium (NGM) plates with Escherichia coli strain OP50 as a food source at 20°C, while CL4176 was maintained at 16°C. Worms were synchronized by isolating eggs from gravid adults at 20°C (N2 and tph-1) or 16°C (CL4176), and eggs were hatched overnight in NGM plates. In the experiments, the worms were fed with the different compounds from egg through to adult stages, and transferred to new plates every two days. […] ZPP (1 µM) was used as an internal positive control. Transgene expression was induced by up-shifting the temperature from 16°C to 25°C, starting 24 h after egg lying and maintained for 24 h. Then worms were incubated at 20°C until all the worms in the experiment became paralyzed. […] Paralysis in induced worms was compared with non-induced worms (maintained at 16°C until the end of the paralysis assay). Experiments were carried out in triplicate.

In assay [2] the test system is C. elegans wild-type strain N2. In words: survival of wild-type C. elegans N2 after H2O2-induced oxidative stress. The following applies: compared with NGM. It is filed as in vivo, Caenorhabditis elegans. As to the method: Experiments of oxidative stress, body fat reduction and microarrays were carried out with the wild-type strain N2 (Bristol). Paralysis assays were performed with the transgenic strain CL4176 (smg-1^ts [pAF29(myo-3/Aβ1–42/let UTR)+pRF4(rol-6(su10069))]). Paralysis is induced in strain CL4176 by expression of a muscle-specific Aβ1–42, which depends on up-shifting temperature from 16 to 25°C [21], [22]. Mutant strain GR1321 (tph-1(mg280)) was used in body fat reduction experiments. All the strains were obtained from the Caenorhabditis Genetics Center (University of Minnesota).
Caenorhabditis elegans N2 and tph-1 were routinely propagated on Nematode Growth Medium (NGM) plates with Escherichia coli strain OP50 as a food source at 20°C, while CL4176 was maintained at 16°C. Worms were synchronized by isolating eggs from gravid adults at 20°C (N2 and tph-1) or 16°C (CL4176), and eggs were hatched overnight in NGM plates. In the experiments, the worms were fed with the different compounds from egg through to adult stages, and transferred to new plates every two days. […]
Viability of C. elegans was assessed after oxidative stress and differences between nematodes cultured in control and treatment conditions were evaluated by means of one-way analysis of variance (ANOVA) using Statgraphics plus (version 5.1) software (Manugistics, Rockville, MD).

For assay [3], the system named is C. elegans strain CL4176 (Aβ1–42). The following applies: ref [36], [37]; cited from earlier work. The text has this: (§1) This could be explained by the release of bioactive peptides from the protein fraction of the by-product.
A further assay concerns Aβ42. The following applies: C. elegans; ref [36], [37]; cited from earlier work.
From the text: as §1

The target in assay [4] is T1, prolyl endopeptidase (PEP) (Elizabethkingia meningoseptica, UniProt P27028).
T1 construct: purchased Seikagaku Corporation, Tokyo, Japan
The assay is described as follows: biochemical. As to the method: Prolyl endopeptidase (PEP) activity was determined using a previously described method. Reaction was performed by addition of 0.1 U/ml of PEP (Seikagaku Corporation, Tokyo, Japan) to a 100 mM phosphate buffer pH 7 containing 2 mM of Z-Gly-Pro-p-nitroaniline (Sigma, Madrid, Spain). Samples were incubated for 20 min at 30°C and then the reaction was stopped by adding a volume of 10.5% Triton X-100 in 1 M sodium acetate buffer pH 4. The amount of ρ-nitroaniline released was quantified by spectrophotometry at 410 nm. The inhibitory activity of PEP was determined by adding 100 µl of each sample obtained during the purification process to the enzymatic reaction. Z-Prolyl-Prolinal (ZPP) (0.000426 ppm, Biomol, Plymouth Meeting, USA) was used as positive control of inhibition.

T1 sequence (P27028 21-705): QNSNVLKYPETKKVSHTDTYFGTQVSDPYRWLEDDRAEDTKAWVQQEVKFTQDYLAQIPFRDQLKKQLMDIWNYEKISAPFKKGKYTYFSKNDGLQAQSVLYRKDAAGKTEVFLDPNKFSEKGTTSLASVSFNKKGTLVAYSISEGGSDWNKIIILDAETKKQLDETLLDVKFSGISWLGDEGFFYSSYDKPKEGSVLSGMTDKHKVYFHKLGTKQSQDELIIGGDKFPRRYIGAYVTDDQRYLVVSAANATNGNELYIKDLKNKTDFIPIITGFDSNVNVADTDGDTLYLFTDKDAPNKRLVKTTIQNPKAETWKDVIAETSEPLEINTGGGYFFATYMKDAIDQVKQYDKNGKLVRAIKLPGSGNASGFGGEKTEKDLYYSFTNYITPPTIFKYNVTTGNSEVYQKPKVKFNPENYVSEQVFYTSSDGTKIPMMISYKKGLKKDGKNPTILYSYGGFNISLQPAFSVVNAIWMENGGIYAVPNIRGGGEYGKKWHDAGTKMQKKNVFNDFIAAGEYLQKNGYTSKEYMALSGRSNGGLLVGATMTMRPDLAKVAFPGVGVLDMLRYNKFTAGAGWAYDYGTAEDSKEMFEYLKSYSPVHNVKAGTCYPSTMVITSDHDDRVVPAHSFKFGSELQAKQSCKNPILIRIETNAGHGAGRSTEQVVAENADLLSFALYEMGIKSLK

Regarding GVKGEPGPNTL [11R, GVKGEPGPNTL], in assay [1], the “effect on body paralysis (in words)” value is on record as “ability to ameliorate Aβ-induced paralysis”; the “Mid Paralysis (h), time when 50% of worms were paralyzed” value is 49 h; the “% of worms non paralyzed at onset of paralysis” value (shortened to “% of worms non paralyzed”) is 89.9%; the “Onset Paralysis, time” value came to 41 h. Also, the “effect on worm survival after oxidative stress (in words)” value in assay [2] was “significant protection upon oxidative stress”.
For the compound `COC(=O)[C@H]1[C@H]2C[C@@H]3c4[nH]c5cc(OC)ccc5c4CCN3C[C@H]2C[C@@H](OC(=O)c2cc(OC)c(OC)c(OC)c2)[C@@H]1OC` [reserpine], in assay [3], the “effect on paralysis (in words)” value is listed as “effect on delaying paralysis”. Also, the “effect on Aβ peptide expression levels (in words)” value with Aβ42 is “no effects were observed in Aβ peptide expression levels”.
In the case of NYDNSAGKW [9L, NYDNSAGKW], the pIC50 (commonly the IC50 on a negative log10 scale, so that one unit is a factor of ten) in assay [4] was 3.32.
In turn, DNYDNSAGKWWVT [13L, DNYDNSAGKWWVT] gave a pIC50 in assay [4] of 3.91.
`O=C[C@@H]1CCCN1C(=O)[C@@H]1CCCN1C(=O)OCc1ccccc1` [ZPP, Z-Prolyl-Prolinal, reference compound] (Cbz-Pro-Pro-aldehyde): in assay [1], the “Mid Paralysis (h), time when 50% of worms were paralyzed” value was more than 49 h; the “% of worms non paralyzed” value amounted to 96.7%; the “Onset Paralysis, time” value came out at 41 h.
Consider “TDGVKGEPGPNTL [13R, synthesized peptide from the 21 kDa seed protein of Theobroma cacao]”, for which, in assay [1], the “effect on body paralysis (in words)” value is on record as “ability to ameliorate Aβ-induced paralysis”; the “Mid Paralysis (h), time when 50% of worms were paralyzed” value was 49 h; the “% of worms non paralyzed” value is given as 83.4%; the “Onset Paralysis, time” value is listed as 41 h. For the same compound, in assay [4] (synthetic peptides, 0.1 U/ml PEP, 2 mM Z-Gly-Pro-p-nitroaniline, pH 7, 20 min at 30°C, 410 nm), the “inhibitory activity (IC50) against PEP enzyme” value is more than 1480 µg/mL. The “effect on worm survival after oxidative stress (in words)” value in assay [2] is given as “did not produce a significant effect on worm survival rates”.
